Results: PubChem BioAssay AID2060898 (Molecular Pharmacology Branch, DTP, NCI, 2025)

Tested on: 616215-338-R-J1-PDC complex spheroid viability
Assay: Anticancer human tumor 616215-338-R-J1-PDC patient-derived colon adenocarcinoma cell line growth inhibition [RAS]
Conditions: for viability, T/C: stronger effect = lower value
In short: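 Tumour cells grown as complex spheroids with HUVEC endothelial cells and mesenchymal stem cells, treated with RAS pathway inhibitor combinations. Each agent spans half-log steps from near clinical Cmax, or 10 microM where Cmax is unknown.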
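Note: spheroids exposed to agents for seven days before viability readout.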
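Throughout, for viability, T/C: 100% = DMSO vehicle control viability.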

CC1(O)CCCC1n1c(=O)c(C(F)F)cc2cnc(NC3CCN(S(C)(=O)=O)CC3)nc21 (stereo unspecified) + CCn1c(-c2cccnc2C(C)OC)c2c3cc(ccc31)N1CCOC(CC(NC(=O)C(C(C)C)N(C)C(=O)C3(F)CCN(C(=O)C#CC(C)(C)N(C)C)CC3)C(=O)N3CCCC(N3)C(=O)OCC(C)(C)C2)C1
IC50 (curve of first compound, second compound 0.000949 µM): 1180 nM
IC50 (curve of first compound, second compound 0.003 µM): 1290 nM
IC50 (curve of first compound, second compound 0.00949 µM): 1340 nM
IC50 (curve of first compound, second compound 0.03 µM): 1160 nM
IC50 (curve of first compound, second compound 0.0949 µM): 1180 nM
IC50 (curve of first compound, second compound 0.3 µM): 830 nM
viability, T/C (second compound 0.000949 µM, first compound 0.0316 µM): 112%
viability, T/C (second compound 0.000949 µM, first compound 0.1 µM): 105%
viability, T/C (second compound 0.000949 µM, first compound 0.316 µM): 57.5%
viability, T/C (second compound 0.000949 µM, first compound 1 µM): 53.3%
viability, T/C (second compound 0.000949 µM, first compound 3.16 µM): 48.3%
viability, T/C (second compound 0.000949 µM, first compound 10 µM): 3.43%
viability, T/C (second compound 0.003 µM, first compound 0.0316 µM): 114%
viability, T/C (second compound 0.003 µM, first compound 0.1 µM): 109%
viability, T/C (second compound 0.003 µM, first compound 0.316 µM): 58.3%
viability, T/C (second compound 0.003 µM, first compound 1 µM): 56.5%
viability, T/C (second compound 0.003 µM, first compound 3.16 µM): 49.9%
viability, T/C (second compound 0.003 µM, first compound 10 µM): 3.17%
viability, T/C (second compound 0.00949 µM, first compound 0.0316 µM): 109%
viability, T/C (second compound 0.00949 µM, first compound 0.1 µM): 112%
viability, T/C (second compound 0.00949 µM, first compound 0.316 µM): 61.9%
viability, T/C (second compound 0.00949 µM, first compound 1 µM): 55.3%
viability, T/C (second compound 0.00949 µM, first compound 3.16 µM): 50.3%
viability, T/C (second compound 0.00949 µM, first compound 10 µM): 3.71%
viability, T/C (second compound 0.03 µM, first compound 0.0316 µM): 118%
viability, T/C (second compound 0.03 µM, first compound 0.1 µM): 112%
viability, T/C (second compound 0.03 µM, first compound 0.316 µM): 55.1%
viability, T/C (second compound 0.03 µM, first compound 1 µM): 50%
viability, T/C (second compound 0.03 µM, first compound 3.16 µM): 46%
viability, T/C (second compound 0.03 µM, first compound 10 µM): 4.07%
viability, T/C (second compound 0.0949 µM, first compound 0.0316 µM): 108%
viability, T/C (second compound 0.0949 µM, first compound 0.1 µM): 102%
viability, T/C (second compound 0.0949 µM, first compound 0.316 µM): 60.8%
viability, T/C (second compound 0.0949 µM, first compound 1 µM): 51%
viability, T/C (second compound 0.0949 µM, first compound 3.16 µM): 49.8%
viability, T/C (second compound 0.0949 µM, first compound 10 µM): 4.02%
viability, T/C (second compound 0.3 µM, first compound 0.0316 µM): 95.5%
viability, T/C (second compound 0.3 µM, first compound 0.1 µM): 74.3%
viability, T/C (second compound 0.3 µM, first compound 0.316 µM): 44.1%
viability, T/C (second compound 0.3 µM, first compound 1 µM): 52.6%
viability, T/C (second compound 0.3 µM, first compound 3.16 µM): 52.4%
viability, T/C (second compound 0.3 µM, first compound 10 µM): 3.81%

CC(C)n1nc(-c2ccc3oc(N)nc3c2)c2c(N)ncnc21 + C#Cc1c(F)ccc2cc(O)cc(-c3ncc4c(N5CC6CCC(C5)N6)nc(OCC56CCCN5CC(F)C6)nc4c3F)c12
IC50 (curve of first compound, second compound 0.0316 µM): > 100 nM
IC50 (curve of first compound, second compound 0.1 µM): > 100 nM
IC50 (curve of first compound, second compound 0.316 µM): > 100 nM
IC50 (curve of first compound, second compound 1 µM): > 100 nM
IC50 (curve of first compound, second compound 3.16 µM): 59.9 nM
IC50 (curve of first compound, second compound 10 µM): 13.9 nM
viability, T/C (second compound 0.0316 µM, first compound 0.000316 µM): 113%
viability, T/C (second compound 0.0316 µM, first compound 0.001 µM): 119%
viability, T/C (second compound 0.0316 µM, first compound 0.00316 µM): 112%
viability, T/C (second compound 0.0316 µM, first compound 0.01 µM): 114%
viability, T/C (second compound 0.0316 µM, first compound 0.0316 µM): 104%
viability, T/C (second compound 0.0316 µM, first compound 0.1 µM): 57.1%
viability, T/C (second compound 0.1 µM, first compound 0.000316 µM): 116%
viability, T/C (second compound 0.1 µM, first compound 0.001 µM): 107%
viability, T/C (second compound 0.1 µM, first compound 0.00316 µM): 113%
viability, T/C (second compound 0.1 µM, first compound 0.01 µM): 106%
viability, T/C (second compound 0.1 µM, first compound 0.0316 µM): 107%
viability, T/C (second compound 0.1 µM, first compound 0.1 µM): 58%
viability, T/C (second compound 0.316 µM, first compound 0.000316 µM): 116%
viability, T/C (second compound 0.316 µM, first compound 0.001 µM): 111%
viability, T/C (second compound 0.316 µM, first compound 0.00316 µM): 112%
viability, T/C (second compound 0.316 µM, first compound 0.01 µM): 112%
viability, T/C (second compound 0.316 µM, first compound 0.0316 µM): 99.9%
viability, T/C (second compound 0.316 µM, first compound 0.1 µM): 54.9%
viability, T/C (second compound 1 µM, first compound 0.000316 µM): 118%
viability, T/C (second compound 1 µM, first compound 0.001 µM): 111%
viability, T/C (second compound 1 µM, first compound 0.00316 µM): 121%
viability, T/C (second compound 1 µM, first compound 0.01 µM): 116%
viability, T/C (second compound 1 µM, first compound 0.0316 µM): 111%
viability, T/C (second compound 1 µM, first compound 0.1 µM): 54.2%
viability, T/C (second compound 3.16 µM, first compound 0.000316 µM): 86.8%
viability, T/C (second compound 3.16 µM, first compound 0.001 µM): 105%
viability, T/C (second compound 3.16 µM, first compound 0.00316 µM): 98.3%
viability, T/C (second compound 3.16 µM, first compound 0.01 µM): 77.9%
viability, T/C (second compound 3.16 µM, first compound 0.0316 µM): 67.9%
viability, T/C (second compound 3.16 µM, first compound 0.1 µM): 37.2%
viability, T/C (second compound 10 µM, first compound 0.000316 µM): 76.8%
viability, T/C (second compound 10 µM, first compound 0.001 µM): 64.2%
viability, T/C (second compound 10 µM, first compound 0.00316 µM): 68.2%
viability, T/C (second compound 10 µM, first compound 0.01 µM): 49.2%
viability, T/C (second compound 10 µM, first compound 0.0316 µM): 44.2%
viability, T/C (second compound 10 µM, first compound 0.1 µM): 27.9%

CC1(O)CCCC1n1c(=O)c(C(F)F)cc2cnc(NC3CCN(S(C)(=O)=O)CC3)nc21 (stereo unspecified)
viability, T/C (compound 0.0316 µM): 112% [middle of 4 runs]
viability, T/C (compound 0.1 µM): 103% [middle of 4 runs]
viability, T/C (compound 0.316 µM): 59.3% [middle of 4 runs]
viability, T/C (compound 1 µM): 56.1% [middle of 4 runs]
viability, T/C (compound 3.16 µM): 48.9% [middle of 4 runs]
viability, T/C (compound 10 µM): 2.6% [middle of 4 runs]
IC50 (curve of compound): 1.23 µM [middle of 4 runs]
